10 compounds from article PMC3563301 (Journal of medicinal chemistry, 2012) can be followed below.

What is called inhibition is the relative decrease from the control value, in per cent. Usually IC50 stands for the concentration needed to halve the response being measured. For orientation: Papp A→B means the apparent permeability from the apical to the basolateral side of a cell layer. For orientation: Papp B→A means the apparent permeability from the basolateral to the apical side of a cell layer.

For data set [1], the target named is CYP2D6 (Homo sapiens, UniProt P10635). As to the kind of experiment: CYP450 inhibition, CYP2D6. Conditions: recombinant CYP2D6 (Supersomes, Gentest), pH 7.4. The class given is biochemical.
The subject of data set [2] is U87MG cells. In words: ROS generation. The class given is cell-based, human. Conditions: 400 mM H2O2, 1 h treatment.
In data set [3] the test system is HeLa, HT29, A549, HCT 116, and HCT 15 cell lines. In words: Average growth inhibition over five cell lines. The class given is cell-based. To be noted: Homo sapiens, read-out: average IC50 for the five cell lines, HeLa, HT-29, A549, HCT 116, HCT 15; for comparative purposes.
Data set [4] concerns OVCAR-8. In words: Growth inhibition of OVCAR-8 cells. The class given is cell-based. Conditions: Homo sapiens, OVCAR-8, 96 h, read-out: IC50 ± SD OVCAR-8.
Data set [5] deals with U87MG cells. As to the kind of experiment: Loss of mitochondrial potential. The class given is cell-based, human. Conditions: 30 μM, 24 h, JC-1.
A short description of data set [6]: Caco-2 cell permeability. The class given is in vitro ADME. To be noted: human.

Chain of CYP2D6 (P10635 whole entry): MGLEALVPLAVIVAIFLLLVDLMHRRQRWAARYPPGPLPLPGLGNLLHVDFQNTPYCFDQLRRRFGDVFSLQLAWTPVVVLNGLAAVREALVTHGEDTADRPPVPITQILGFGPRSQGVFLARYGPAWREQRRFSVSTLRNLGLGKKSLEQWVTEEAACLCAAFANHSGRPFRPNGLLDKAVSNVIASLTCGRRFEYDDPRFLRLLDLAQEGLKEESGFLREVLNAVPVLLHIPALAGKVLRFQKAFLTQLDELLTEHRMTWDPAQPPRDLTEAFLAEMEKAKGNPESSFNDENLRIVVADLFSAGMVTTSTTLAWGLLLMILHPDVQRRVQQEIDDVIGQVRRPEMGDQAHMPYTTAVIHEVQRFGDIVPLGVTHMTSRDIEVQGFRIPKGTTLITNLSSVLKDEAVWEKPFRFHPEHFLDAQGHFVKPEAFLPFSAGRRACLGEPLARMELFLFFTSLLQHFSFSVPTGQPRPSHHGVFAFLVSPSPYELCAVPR

On to `COc1cc(Sc2c(-n3cncn3)[nH]c3ccccc23)cc(OC)c1OC` [Compound 20, 2-(1H-1,2,4-Triazol-1-yl)-3-((3,4,5-trimethoxyphenyl)thio)-1H-indole], for which, in data set [1], the inhibition at 30 min, 1 µM is less than 50%.

Turning to `OO` [hydrogen peroxide], the “ROS, fluorescence intensity with respect to control” value in data set [2] was 208%.

`COc1cc(Sc2c(-c3cccnc3)[nH]c3ccccc23)cc(OC)c1OC` [Compound 55, 2-(Pyridin-3-yl)-3-((3,4,5-trimethoxyphenyl)thio)-1H-indole]: the inhibition at 30 min, 1 µM in data set [1] was less than 50%.

In the case of `CC(=O)O[C@H]1C(=O)[C@@]2(C)[C@H]([C@H](OC(=O)c3ccccc3)[C@]3(O)C[C@H](OC(=O)[C@H](O)[C@@H](NC(=O)c4ccccc4)c4ccccc4)C(C)=C1C3(C)C)[C@]1(OC(C)=O)CO[C@@H]1C[C@@H]2O` [PTX, paclitaxel], the concentration for half-maximal inhibition (IC50) in data set [3] is 0.023 µM.

Take `COc1cc(Sc2c(-c3ccncc3)[nH]c3ccccc23)cc(OC)c1OC` [Compound 57, 2-(Pyridin-4-yl)-3-((3,4,5-trimethoxyphenyl)thio)-1H-indole]: the inhibition at 30 min, 1 µM in data set [1] was less than 50%.

For `COc1cc(Sc2c(-n3ccnc3)[nH]c3ccccc23)cc(OC)c1OC` [Compound 18, 2-(1H-Imidazol-1-yl)-3-((3,4,5-trimethoxyphenyl)thio)-1H-indole], in data set [1], the inhibition at 30 min, 1 µM is less than 50%.

In the case of `CC[C@]1(O)C[C@@H]2CN(CCc3c([nH]c4ccccc34)[C@@](C(=O)OC)(c3cc4c(cc3OC)N(C)[C@H]3[C@@](O)(C(=O)OC)[C@H](OC(C)=O)[C@]5(CC)C=CCN6CC[C@]43[C@@H]65)C2)C1` [VBL, vinblastine], the results for the IC50 in data set [4] and in data set [3] were 0.015 ± 0.007 µM and 0.017 µM, respectively.

For the compound `COc1ccc(/C=C\c2cc(OC)c(OC)c(OC)c2)cc1O` [Compound 2, combretastatin A-4], in data set [3], the IC50 is greater than 2.03 µM.

Turning to `N#CC(C#N)=NNc1cccc(Cl)c1` [CCCP, carbonyl cyanide m-chlorophenylhydrazone], the mitochondrial potential dissipation entry in data set [5] is reported as “about 50%”.

`CN/C(=N/CCSCc1nc[nH]c1C)NC#N` [cimetidine]: in data set [6], the apparent permeability from apical to basolateral (Papp A→B) at 2 h, 10 μM amounted to 0.11 ×10⁻⁶ cm/s and the apparent permeability from basolateral to apical (Papp B→A) at 2 h, 10 μM amounted to 2.13 ×10⁻⁶ cm/s.
